The values that follow come from patent publication US5232917A, “Methods, compositions, and compounds for allosteric modulation of the GABA receptor by members of the androstane and pregnane series” (priority 1991, dated 1993).

Like-named read-outs stand apart in the source and are kept apart here.

For test [1], the target named is T1, progesterone receptor (Bos taurus, UniProt F1N712).
T1 construct: from tissue; host or cells: bovine uterus cytosol
T1 sequence (F1N712 1-914): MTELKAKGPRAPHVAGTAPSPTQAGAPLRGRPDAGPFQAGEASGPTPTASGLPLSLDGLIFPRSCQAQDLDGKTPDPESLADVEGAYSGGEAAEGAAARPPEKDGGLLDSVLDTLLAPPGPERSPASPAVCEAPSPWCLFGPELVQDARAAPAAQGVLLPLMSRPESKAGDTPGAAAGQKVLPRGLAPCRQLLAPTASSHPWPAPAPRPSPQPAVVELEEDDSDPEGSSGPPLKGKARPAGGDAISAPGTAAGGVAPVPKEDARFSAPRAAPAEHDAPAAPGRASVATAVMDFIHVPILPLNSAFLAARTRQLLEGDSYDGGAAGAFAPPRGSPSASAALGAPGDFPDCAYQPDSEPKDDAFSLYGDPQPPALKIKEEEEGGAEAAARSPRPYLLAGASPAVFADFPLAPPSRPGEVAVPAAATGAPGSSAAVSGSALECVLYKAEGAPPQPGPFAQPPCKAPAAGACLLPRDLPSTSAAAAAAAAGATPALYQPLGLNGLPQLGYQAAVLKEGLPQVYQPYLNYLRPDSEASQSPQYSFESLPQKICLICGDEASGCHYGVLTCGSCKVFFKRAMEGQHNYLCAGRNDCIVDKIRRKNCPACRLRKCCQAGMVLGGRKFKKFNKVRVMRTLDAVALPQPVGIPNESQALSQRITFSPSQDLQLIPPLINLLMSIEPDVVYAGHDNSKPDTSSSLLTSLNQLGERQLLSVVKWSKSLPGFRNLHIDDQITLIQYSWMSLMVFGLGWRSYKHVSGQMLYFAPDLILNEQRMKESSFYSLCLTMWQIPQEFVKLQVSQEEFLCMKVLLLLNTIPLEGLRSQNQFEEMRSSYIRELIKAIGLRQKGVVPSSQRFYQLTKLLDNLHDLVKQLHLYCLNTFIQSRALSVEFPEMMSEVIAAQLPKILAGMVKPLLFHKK
Description: Inhibition of 3H-progesterone binding to bovine uteral progesterone receptors. The gist of the method: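 Bovine uterine cytosol served as the progesterone receptor source. Compounds were scored by their inhibition of ^3H-progesterone binding.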

Test [2] concerns number of light/dark transitions (anxiety). Description: Light/dark transition test. Type of test: in vivo, mice (male N.I.H. Swiss-Webster). The following applies: for effect on number of light/dark transitions (words): 3α-OH-DHP 10, 20, 40 mg/kg, 5α-THDOC 20 mg/kg, diazepam 1.0, 5.0, 10, 20 mg/kg, 20 mg/kg.
For test [3], the target named is GABA receptor-chloride ionophore complex (GR complex). Description: [35S]TBPS binding modulation assay.
Test [4] has as its system metrazol induced convulsions. In words: Inhibition of metrazol induced convulsions (Table 2). Type of test: in vivo, mice. As to conditions: Mus musculus; inhibition of metrazol induced convulsions; read-out: Anti-Metrazol ED50.
[5] abbreviates: read-out: % of inhibition of 3H-progesterone binding, A, competitor 10^-5 M, 0.15 nM 3H-progesterone.
Setting [6] is: read-out: % of inhibition of 3H-progesterone binding, A, competitor 10^-6 M, 0.15 nM 3H-progesterone.
The mark [7] stands for this setting: read-out: % of inhibition of 3H-progesterone binding, B, competitor 10^-5 M, 0.25 nM 3H-progesterone.
Setting [8] is: read-out: % of inhibition of 3H-progesterone binding, B, competitor 10^-6 M, 0.25 nM 3H-progesterone.
[9] abbreviates: read-out: IC50, inhibition of [35S]-TBPS binding, +5 μM GABA, in the presence of 5 μM GABA.

With `CC(=O)[C@H]1CC[C@H]2[C@@H]3CC[C@H]4C[C@H](O)CC[C@]4(C)[C@H]3CC[C@]12C` [Example 3α-OH-DHP, 3α-hydroxy-5α-pregnan-20-one], the inhibition (in general, the percentage by which the read-out fell short of the control) at 10 µM in test [1] (setting [5]) is 41%; in test [1] (setting [7]) it was 40%. Moreover, the inhibition at 1 µM in test [1] (setting [6]) is 14%; in test [1] (setting [8]), 2%. Moreover, the “number of transitions in 10 min (maximal effect)” value in test [2] (3α-OH-DHP 20 mg/kg i.p., FIG. 9) is listed as 70.2±4.3 transitions. In addition, the figures for the “effect on number of light/dark transitions (words)” value in test [2] and in test [2] (listed as α-OH-DHP) were “significant (p<0.01) increase” and “number of transitions was increased”, respectively. The concentration for half-maximal inhibition (IC50) (in general, the concentration needed to halve the response being measured) in test [3] (setting [9]) came out at 38 nM; in test [3] (read-out: IC50, inhibition of [35S]-TBPS binding, No GABA, washed synaptoneurosomes, no GABA added), 230 nM. Also, the ED50 (as a rule, the dose at which the effect has come halfway, by size or by number of responders) in test [4] was found to be 5 mg/kg.

Consider `C[C@]12CC[C@@H](O)C[C@@H]1CC[C@@H]1[C@@H]2CC[C@]2(C)[C@@H](C(=O)CO)CC[C@@H]12` [Example 5α-THDOC, 3α,21-dihydroxy-5α-pregnan-20-one], for which the results for the inhibition at 10 µM in test [1] (setting [5]) and in test [1] (setting [7]) were 35% and 28%, respectively. The inhibition at 1 µM is 13% in test [1] (setting [6]) and 5% in test [1] (setting [8]). Also, the “effect on number of light/dark transitions (words)” value in test [2] was “significantly different from vehicle”. For the same compound, the “number of transitions in 10 min” value in test [2] (5α-THDOC 10 mg/kg i.p., vehicle 35.2±2.0, p<0.06, FIG. 10) stood at 49.4±2.0 transitions. For the same compound, the “effect on number of light/dark transitions at the highest dose” value in test [2] (5α-THDOC 40 mg/kg, p<0.05 vs vehicle) is on record as “significant decrease”. Besides, in test [3] (setting [9]), the IC50 was found to be 80 nM. Also, in test [3] (saturating concentrations of test compound), the “Max. Inhib., maximal % of specifically bound [35S]-TBPS displaced” value came out at 100%. For the same compound, the ED50 in test [4] amounted to 8 mg/kg.
